Measured values published in patent US20260124192A1, “COMPOUNDS, COMPOSITIONS, AND METHODS OF TREATING RNA VIRAL INFECTIONS” (priority 2024, published 2026).
Like-named read-outs stand apart in the source and are kept apart here.

Tests used:
[1] = tested on: 13 viruses and variants; experiment: organism not typed; format: cell-based; conditions: read-out: antiviral activity (best EC50 per virus/strain/variant)
[2] = tested on: SARS-CoV-2 Delta (B.1.617.2); experiment: SARS-CoV-2 IF assay, HeLa-ACE2 (Method 1); format: cell-based; conditions: 2% FBS
[3] = tested on: SARS-CoV-2 Alpha (B.1.1.7); experiment: SARS-CoV-2 IF assay, HeLa-ACE2 (Method 1); format: cell-based; conditions: 2% FBS
[4] = Cytotoxicity, XTT, MRC-5; conditions: human
[5] = tested on: SARS-CoV-2 Omicron (B.1.1.529); experiment: SARS-CoV-2 IF assay, HeLa-ACE2 (Method 1); format: cell-based; conditions: Severe acute respiratory syndrome coronavirus 2, HeLa-ACE2, SARS-CoV-2 Omicron (B.1.1.529), 2% FBS
[6] = tested on: Norwalk Virus; experiment: Norwalk virus CPE assay, HG23 (Method 6); format: cell-based; conditions: Norovirus Norwalk Virus, 2% FBS, @ 5 μM
Protocol: Compounds were tested in an assay medium containing 2% fetal bovine serum (FBS). Test compounds were added to cells prior to infection with virus at a multiplicity of infection (MOI) sufficient to induce visible cytopathic effect (CPE). […] Additionally, the EC90 was defined as the concentration required to achieve a 1 log10 reduction in viral titer. Dose-response curves depicting viral CPE (red line) and compound cytotoxicity (purple line) were generated to support these analyses.

[7] = tested on: SARS-CoV-2 USA-WA1/2020; experiment: SARS-CoV-2 CPE assay, A549-ACE2 (Method 2); format: cell-based; conditions: 2% FBS
[8] = tested on: SARS-CoV-2 USA-WA1/2020; experiment: SARS-CoV-2 CPE assay, Vero 76 (Method 2); format: cell-based; conditions: Severe acute respiratory syndrome coronavirus 2, 2% FBS
[9] = tested on: SARS-CoV-2 USA-WA1/2020; experiment: SARS-CoV-2 CPE assay, Vero E6 (Method 2); format: cell-based; conditions: Severe acute respiratory syndrome coronavirus 2, Vero C1008, 2% FBS
[10] = tested on: FBS; experiment: Protein binding by rapid equilibrium dialysis (RED) in FBS; conditions: 1 μM, n = 3
[11] = tested on: Influenza B Victoria/Florida; experiment: Influenza B CPE assay, MDCK; format: cell-based; conditions: Influenza B virus, albumin content N/A
Description: (§1) The antiviral assays were cell line based and consisted in transfecting each of the viruses tested in a compatible cell line. Upon infection and after drug treatment, viral survival and cell toxicity were reported from the readout of three different assays: cytopathic effect (CPE), viral yield reduction (VYR), or immunofluorescence (IF).

[12] = tested on: Influenza B Yamagata/Brisbane; experiment: Influenza B CPE assay, MDCK; format: cell-based; conditions: Influenza B virus, albumin content N/A
Description: as §1

[13] = in vitro; conditions: African green monkey, CC50 (μM), Vero 76; with CPE assays (SARS-CoV-2 WA1, Delta); not converted for FBS
[14] = in vitro; conditions: dog, CC50 (μM), MDCK; with Influenza B CPE assays
[15] = Cytotoxicity, MTT assay in uninfected A549; format: cell-based; conditions: human, uninfected A549 cells, with Influenza A IF assay, not converted
[16] = tested on: A549-ACE2 cells; conditions: with CPE assays (SARS-CoV-2 WA1, Delta, OC43), not converted for FBS
[17] = tested on: MCF7 wild-type cell lines; experiment: MCF7 growth inhibition assay (Cell Titre Glo 2.0); format: cell-based; conditions: Homo sapiens, MCF7, 120 h, read-out: MCF-7 IC50 (μM)
Protocol: The growth inhibition properties of inhibitors on MCF7 wild-type cell lines were evaluated using the Cell Titre Glo 2.0 cell viability reagent. The assay utilized 384-well black clear bottom plates with 20 μl of MCF7 wild-type cell suspension mixed with reference/test compounds and 20 μl of Cell Titre Glo 2.0 reagent. Cells were seeded at a density of 1000 cells/well in DMEM High Glucose culture media+10% Fetal Bovine Serum (FBS). Staurosporine and Camptothecin served as positive controls for confirming cytotoxicity at a concentration of 30 μM, and vehicle control of 1% DMSO was used to standardize conditions across all test points. The assay and culture media both contained 1% DMSO. Assays were conducted in duplicate for each concentration of the test compounds. The incubation period for the assay was set at 120 hours, after which growth inhibition was assessed. Using a multi-mode reader, the assay readout was based on luminescence measured in Relative Light Units (RLUs). The viability luminescence signal was monitored continually from the same wells over an extended period, allowing for detailed analysis of cell viability. Measurements were taken using an integration time ranging from 0.25 to 1 second across plates designated for various time points.
Cells were maintained and seeded in 384 […] plates, maintaining 1000 cells/well. Seeded plates were incubated at 37° C., 5% CO2 for 16-18 hours to ensure optimal cell adherence and growth. Post-incubation, reference, and test compounds were added carefully to the wells for further processing. Plates were incubated again at 37° C., 5% CO2 for 120 hours (5 days) to allow compound effects. This was followed by the addition of CTG reagent as per the kit's instruction protocol for 30 minutes and RLU data to be recorded. Post plate read data to be analyzed using GraphPad Prism for software IC50 value generation.
Next, the NCEs were tested for selective estrogen regulation modulation activity by using a growth inhibition assay. The assay is performed on MCF7 cells, which are derived from a hormone-dependent breast cancer that stops growing upon estrogen receptor inhibition. […] Staurosporine and Camptothecin served as positive controls for cytotoxicity and 1% DMSO as the vehicle control.

[18] = tested on: MRC-5 cells; conditions: human, 6 days

Cc1c(-c2ccc(O)cc2)n(Cc2ccc(OCCN3CCCCC3)cc2)c2ccc(O)cc12 [Pipendoxifene]
EC50 [1]: < 10000 nM | EC50 ([2]; SARS-CoV-2 Delta (B.1.617.2)): 677 nM | EC50 ([2]; Severe acute respiratory syndrome coronavirus 2, HeLa-ACE2, SARS-CoV-2 Delta (B.1.617.2)): 740 nM | EC50 ([3]; SARS-CoV-2 Alpha (B.1.1.7)): 1200 nM | EC50 ([3]; Severe acute respiratory syndrome coronavirus 2, HeLa-ACE2, SARS-CoV-2 Alpha (B.1.1.7)): 830 nM | CC50 at 6 days [4]: > 1000 nM | EC50 [5]: 750 nM | percent effect printed in column EC50 (μM) [6]: 31% @ | EC50 [7]: 1900 nM | EC50 [8]: 2600 nM | EC50 [9]: 520 nM | Mean unbound (Fub, %) ([10]; 2% heat inactivated FBS): 25.0% | Mean unbound (Fub, %) ([10]; 10% heat inactivated FBS): 5.0% | Mean unbound (Fub, %) ([10]; 10% not inactivated FBS): 4.7% | EC50 ([11]; read-out: Corrected EC50): 4100 nM | EC50 ([11]; read-out: EC50): 4100 nM | EC50 ([12]; read-out: Corrected EC50): 6700 nM | EC50 ([12]; read-out: EC50): 6700 nM | CC50 [13]: 2.9 µM | CC50 [14]: 9.8 µM | CC50 at 24 h [15]: 13700 nM | CC50 [16]: > 15000 nM | IC50 [17]: 0.00064 µM | CC50 [18]: > 1000 nM
